Experimental data from publication PMC10629462 (Molecular cell, 2023).

Assays:
CtSen1^FL = CtSen1^FL (Thermochaetoides thermophila, UniProt G0S163); assay: malachite green phosphate release ATPase assay; type: biochemical; conditions: 1 mM ATP, 2 mM MgCl2, pH 7.5, 37 °C, RNA-DNA Sub6 5 μM, 5 nM enzyme
CtSen1Hel-1878 = biological target: T1, CtSen1Hel-1878 (Chaetomium thermophilum, UniProt G0S163 1087-1878); assay: X-ray crystallography
T1 sequence: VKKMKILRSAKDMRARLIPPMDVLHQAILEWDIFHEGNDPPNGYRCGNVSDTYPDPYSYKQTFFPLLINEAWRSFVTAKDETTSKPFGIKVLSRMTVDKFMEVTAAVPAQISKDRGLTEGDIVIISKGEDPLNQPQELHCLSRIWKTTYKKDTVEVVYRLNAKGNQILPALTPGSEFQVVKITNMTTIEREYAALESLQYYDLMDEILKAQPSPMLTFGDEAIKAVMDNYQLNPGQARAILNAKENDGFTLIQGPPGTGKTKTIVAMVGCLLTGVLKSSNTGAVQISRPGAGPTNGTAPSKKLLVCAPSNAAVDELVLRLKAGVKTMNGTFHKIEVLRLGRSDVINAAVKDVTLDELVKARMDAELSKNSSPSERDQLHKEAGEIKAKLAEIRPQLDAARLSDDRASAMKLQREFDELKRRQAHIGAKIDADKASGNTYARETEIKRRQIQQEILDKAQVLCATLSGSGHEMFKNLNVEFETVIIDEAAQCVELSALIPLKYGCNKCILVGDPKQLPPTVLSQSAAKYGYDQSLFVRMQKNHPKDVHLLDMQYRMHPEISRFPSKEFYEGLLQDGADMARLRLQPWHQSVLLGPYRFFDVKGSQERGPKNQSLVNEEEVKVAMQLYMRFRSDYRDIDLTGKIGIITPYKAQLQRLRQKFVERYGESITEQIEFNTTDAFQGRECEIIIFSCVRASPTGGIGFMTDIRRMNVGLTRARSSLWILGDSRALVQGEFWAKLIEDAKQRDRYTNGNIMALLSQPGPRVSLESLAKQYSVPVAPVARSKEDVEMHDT

Sequence of CtSen1^FL (G0S163 1-1993): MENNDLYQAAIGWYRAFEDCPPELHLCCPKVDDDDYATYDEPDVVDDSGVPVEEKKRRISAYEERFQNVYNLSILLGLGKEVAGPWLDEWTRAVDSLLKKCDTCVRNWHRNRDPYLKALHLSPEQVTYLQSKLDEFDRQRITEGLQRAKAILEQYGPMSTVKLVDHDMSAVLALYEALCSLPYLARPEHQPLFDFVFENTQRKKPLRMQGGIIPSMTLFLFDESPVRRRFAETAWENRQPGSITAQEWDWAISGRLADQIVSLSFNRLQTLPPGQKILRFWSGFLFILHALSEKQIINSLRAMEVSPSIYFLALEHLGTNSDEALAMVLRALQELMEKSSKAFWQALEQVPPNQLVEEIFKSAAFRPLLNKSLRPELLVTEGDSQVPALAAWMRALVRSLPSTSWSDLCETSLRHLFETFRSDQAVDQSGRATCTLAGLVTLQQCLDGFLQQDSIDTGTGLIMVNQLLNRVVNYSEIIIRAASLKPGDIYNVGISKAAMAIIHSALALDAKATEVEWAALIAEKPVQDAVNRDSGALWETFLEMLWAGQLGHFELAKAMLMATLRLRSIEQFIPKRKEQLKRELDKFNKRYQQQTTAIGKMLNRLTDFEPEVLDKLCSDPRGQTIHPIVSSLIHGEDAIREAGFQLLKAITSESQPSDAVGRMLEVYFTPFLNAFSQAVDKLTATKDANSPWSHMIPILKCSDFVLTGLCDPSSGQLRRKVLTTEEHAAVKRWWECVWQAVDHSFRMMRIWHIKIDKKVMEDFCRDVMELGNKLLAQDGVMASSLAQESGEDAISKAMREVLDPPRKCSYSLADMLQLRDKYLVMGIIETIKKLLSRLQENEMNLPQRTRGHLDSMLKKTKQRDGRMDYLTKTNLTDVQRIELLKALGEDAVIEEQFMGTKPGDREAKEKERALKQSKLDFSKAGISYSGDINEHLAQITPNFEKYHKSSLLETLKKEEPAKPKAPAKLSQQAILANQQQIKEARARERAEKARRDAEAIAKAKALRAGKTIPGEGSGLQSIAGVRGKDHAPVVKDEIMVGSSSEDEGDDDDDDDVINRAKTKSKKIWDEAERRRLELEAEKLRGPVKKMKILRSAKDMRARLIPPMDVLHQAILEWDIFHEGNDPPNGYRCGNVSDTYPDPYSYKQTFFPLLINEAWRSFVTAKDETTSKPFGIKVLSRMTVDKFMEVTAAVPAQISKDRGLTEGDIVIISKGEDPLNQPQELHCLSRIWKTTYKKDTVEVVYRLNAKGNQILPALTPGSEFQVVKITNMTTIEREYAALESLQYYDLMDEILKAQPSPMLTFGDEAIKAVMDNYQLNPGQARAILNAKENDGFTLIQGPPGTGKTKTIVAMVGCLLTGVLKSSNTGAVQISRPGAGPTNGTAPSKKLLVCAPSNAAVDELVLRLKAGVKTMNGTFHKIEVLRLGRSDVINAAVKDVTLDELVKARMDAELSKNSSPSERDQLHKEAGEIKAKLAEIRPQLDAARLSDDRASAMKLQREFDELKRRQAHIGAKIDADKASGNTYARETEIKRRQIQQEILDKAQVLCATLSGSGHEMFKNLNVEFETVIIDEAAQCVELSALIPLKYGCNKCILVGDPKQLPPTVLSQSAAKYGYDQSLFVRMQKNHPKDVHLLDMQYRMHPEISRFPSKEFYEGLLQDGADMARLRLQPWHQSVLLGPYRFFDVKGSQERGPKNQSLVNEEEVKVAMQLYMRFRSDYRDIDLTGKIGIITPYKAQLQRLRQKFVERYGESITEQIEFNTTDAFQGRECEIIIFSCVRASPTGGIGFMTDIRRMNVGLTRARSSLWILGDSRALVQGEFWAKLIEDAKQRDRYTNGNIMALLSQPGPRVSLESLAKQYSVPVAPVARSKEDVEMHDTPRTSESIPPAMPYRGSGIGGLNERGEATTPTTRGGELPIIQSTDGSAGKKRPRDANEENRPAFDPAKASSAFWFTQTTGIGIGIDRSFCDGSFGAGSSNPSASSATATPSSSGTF

Molecule | malachite green phosphate release ATPase assay (CtSen1^FL) | binding result (CtSen1Hel-1878)
Nc1ncnc2c1ncn2[C@@H]1O[C@H](COP(=O)(O)OP(=O)(O)OP(=O)(O)O)[C@@H](O)[C@H]1O [ATP] | Substrate stimulated ATP hydrolysis of mutant Sen1 proteins was monitored in a phosphate release assay | 
UUUUUUUUUUUUUUU (ssRNA) [poly-U 15 nt] |  | binds
